Assay results: PubChem BioAssay AID540271 (Broad Institute, 2011)
Calls of active or inactive are those of the source. The rule behind the calls is not given here.

System: S. cerevisiae expressing PfHSP40, growth rescue, plate reader
Assay: Yeast growth rescue from Plasmodium falciparum HSP40 toxicity, dose response confirmatory, plate reader (AID 540271);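 note: yeast growth read after three days of incubation at 30 °C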

SMILES	AC50
COc1ccc(S(=O)(=O)N(C(=O)c2ccncc2)c2ccc(OC(=O)c3ccncc3)cc2)cc1	4.46 µM
O=C(NOC(=O)c1ccccc1)c1ccccc1	2.11 µM
Nc1nc2sc3c(c2c(=O)s1)CCCC3	3.58 µM
O=C1CC(O)(C(F)(F)F)Oc2c1ccc1ccccc21 (centres undefined)	5.78 µM
COc1cc([N+](=O)[O-])cc(/C=N/NC(=O)c2cncc(Br)c2)c1O	4.36 µM
O=C(O/N=C(\c1ccccc1)c1ccncc1)c1ccccc1Cl	> 12 µM (inactive)
Oc1c(Br)cc(-c2ccccc2)cc1Br	4.93 µM
CC(C)CNC(=O)COC(=O)c1ccc([N+](=O)[O-])cc1Cl	> 12 µM (inactive)
Oc1ccc(/C=N/Nc2ccc(C(F)(F)F)cn2)c(O)c1	2.14 µM
O=C1N(c2ccc(Cl)cc2)C(c2cccnc2)N2CCCN12 (centres undefined)	6.03 µM
C=CCN(CC=C)C(=S)NC(=O)c1ccc(C)c(Br)c1	6.72 µM
O=S(=O)(CCSc1ccccn1)c1nc2ccccc2s1	7.49 µM
CCOc1cc([N+](=O)[O-])cc(/C=N/NC(=O)c2c(-c3ccccc3)noc2C)c1O	4.9 µM
Cc1ccccc1CN(C)CCS(=O)(=O)c1cc(Cl)ccc1Cl	> 12 µM (inactive)
O=[N+]([O-])c1cccc(C=NNc2ccc3ccccc3n2)c1O	1.69 µM
Cc1ccc2c(c1C)-c1c(ccc(C)c1C)C(=O)C2=O	1.48 µM
COc1ccc(-c2cc(C(=O)N3CCN(c4ccccc4F)CC3)c3ccccc3n2)c(OC)c1	5.68 µM
CCOC(=O)c1c(C)oc2c1C(=O)c1ccccc1C2=O	6.76 µM
Nc1[nH]c(=O)ncc1F	1.51 µM
O=C(O)c1ccc(N/N=C/C2=C(N3CCOCC3)C(=C\c3ccccc3)/CC2)cc1	6.18 µM
COc1ccc2c(c1)OC[C@H]1[C@H]2N2C(=O)c3cc(Cl)ccc3NC(=O)[C@@]2(C)[C@H]1c1ccccc1	4.63 µM
Cc1cc(/C=C2\SC(=S)NC2=O)c(C)n1-c1cccc(O)c1	9.83 µM
COc1cccc(/C=N/NC(=O)c2nc(-c3ccccc3)cc(-c3ccccc3)n2)c1O	3.51 µM
O=[N+]([O-])c1cc(C(F)(F)F)ccc1NCCc1c[nH]c2ccc(O)cc12	4.85 µM

SMILES	AC50
O=C1c2ccccc2C(=O)c2c1oc(C(F)(F)F)c2C(=O)c1ccccc1	1 µM
Cc1cc(F)ccc1S(=O)(=O)N(C(=O)c1ccncc1)c1ccc(OC(=O)c2ccncc2)cc1	6.3 µM
CC12CCC(O)CC1=CCC1C2CCC2(C)C3=NN=CC3CC12 (centres undefined)	11.4 µM
O=C(N[C@@H](Cc1ccccc1)C(=O)CCl)OCc1ccccc1	2.19 µM
O=C1Nc2c(Br)cccc2C1=O	11.6 µM
O=[N+]([O-])c1cccc(-c2cc(-c3cc(Br)ccc3O)[nH]n2)c1	5.44 µM
c1ccc(-c2ccc(SCc3cccnc3)nn2)nc1	> 12 µM (inactive)
C=CCNC(=S)N1CCC(Cc2ccccc2)CC1	11.3 µM
CC(/C=N/n1c(COc2ccccc2)n[nH]c1=S)=C\c1ccccc1	4.55 µM
O=C(COc1ccccc1F)Nc1nc(-c2ccccn2)cs1	5.52 µM
CC1(C)C2CCC1(C)C(OC(=O)c1ccc(O)cc1)C2 (centres undefined)	4.38 µM
CCn1nc(/C=C/c2ccccc2)nc2c(=O)n(C)c(=O)nc1-2	2.36 µM
CC(C)(C)n1nc(Cc2cccc3ccccc23)c2c(N)ncnc21	5.46 µM
Cc1ccoc1C(=O)Nc1cccc(Oc2ccccc2)c1	2.85 µM
Cc1onc(-c2ccccc2)c1C(=O)NC(=S)NNC(=O)c1ccc(O)cc1O	4.82 µM
N/C(Cc1ccc(Cl)cc1Cl)=N\OC(=O)c1ccccc1F	5.93 µM
CNC(=S)Nc1ccc(C23CC4CC(CC(C4)C2)C3)cc1	7.25 µM
Oc1c(I)cc(Cl)c2cccnc12	0.629 µM
CC(C)(c1cc(Br)c(O)c(Br)c1)c1cc(Br)c(O)c(Br)c1	8.13 µM
Cc1cccc(N2CCN(C(=O)C3COc4ccccc4O3)CC2)c1C (centres undefined)	6.72 µM
Cc1ccc(C)c(/C=C/C(=O)c2ccccc(=O)c2O)c1	3.17 µM
O=C(N/N=C/c1sc(N2CCOCC2)nc1-c1ccccc1)c1ccccc1O	6.17 µM
Cc1ccc(C)c(NS(=O)(=O)c2cc(C(=O)N3CCc4ccccc4C3)ccc2Cl)c1	6.77 µM
O=c1c(CO)cc(CO)cc(CO)c1O	6.03 µM

SMILES	AC50
Oc1ccc(N=Nc2ccc3c(c2)OCCO3)c2cccnc12	1.85 µM
O=c1nc(N/N=C/c2ccccn2)cn[nH]1	5.76 µM
COc1cccc(NC=C2C(=O)OC3(CCCCC3)OC2=O)c1	9.91 µM
C=CCOC(Cn1ccnc1)c1ccc(Cl)cc1Cl (centres undefined)	1.89 µM
NC(=O)N=Nc1c2[nH]c3ccccc3nc-2c2ccccc12	3.89 µM
COc1cccc2c1C(=O)c1c(O)c3c(c(O)c1C2=O)C[C@@](O)(C(=O)CO)C[C@@H]3O[C@H]1C[C@H](N)[C@H](O)[C@H](C)O1	6.48 µM
O=C(CN1CC[n+]2c(-c3cccs3)csc21)c1ccc(-c2ccccc2)cc1	7.25 µM
Cc1ccc2c(C)c3ccc4ccccc4c3c[n+]2c1	6 µM
O=C(CC1(O)C(=O)Nc2cc(Cl)cc(Cl)c21)c1ccncc1 (centres undefined)	> 12 µM (inactive)
COc1ccc(OC)c(-c2c3cc(O)c(=O)cc-3oc3cc(O)c(O)cc23)c1	3.79 µM
CCOC(=O)c1c2c(n(-c3ccc(OC)cc3)c1C)C(=O)C(=O)c1ccccc1-2	3.97 µM
CN(C)c1nc(-c2ccccn2)nnc1-c1ccccc1	5.25 µM
N#Cc1c(-c2ccc(Cl)cc2)n(O)c2ccccc12	2.67 µM
COc1ccc(NC(=O)/C(Cl)=C(/Cl)S(=O)(=O)Cc2ccc(C)cc2)cn1	4.67 µM
CCC1=NN(C(=O)c2cccc(Br)c2)C(O)(c2ccc(Br)cc2)C1 (centres undefined)	5.92 µM
CSc1nccc(NC(=O)c2ccc(C(C)(C)C)cc2)n1	5.08 µM
CNc1cc(CSC)nc(SCc2ccc(Cl)cc2Cl)n1	4.18 µM
CC1=CC(C)(C)N(S(=O)(=O)c2ccc(C)cc2)c2ccc(C)cc21	7.54 µM
Cc1cc([N+](=O)[O-])c(NC2CCCCC2)c([N+](=O)[O-])c1	9.82 µM
CC(C)C(=O)NC(c1cccc([N+](=O)[O-])c1)c1ccc2cccnc2c1O (centres undefined)	1.27 µM
CCCCCCCCCCCCCC(=O)NO	0.727 µM
Cc1ccc(Nc2cc(C)nn2-c2nc(C)cc(C)n2)cc1	3.95 µM
C=C(C)COc1ccc(-c2[nH]ncc2-c2ccccc2)c(O)c1	5.52 µM
CC(C)(C)n1nc(-c2ccc(Cl)cc2)c2c(N)ncnc21	1.56 µM

SMILES	AC50
Cc1ccccc1C(=O)NNC(=S)NC(=O)c1ccc(Cl)cc1Cl	2.36 µM
c1ccc(-c2ccc(OCCCn3cncn3)cc2)cc1	5.48 µM
OCCN(CCO)c1cc2c3ccccc3ccc2c2ccccc12	5.56 µM
CNc1ccc2oc(C[C@H]3O[C@@]4(CC[C@H]3C)O[C@H]([C@H](C)C(=O)c3ccc[nH]3)[C@H](C)C[C@H]4C)nc2c1C(=O)O	0.662 µM
CC(C)(C)c1cc(-c2nc(N)nc(N)n2)c(O)c(C(C)(C)C)c1	4.99 µM
Cc1ccsc1/C=C/c1ccc2cccc(O)c2n1	3.48 µM
O=C(O)CSc1nc(-c2ccc(Cl)cc2)nc2c1oc1ccccc12	6.02 µM
O=C(CC1CC2CCC1C2)Nc1nc(-c2ccccn2)cs1 (centres undefined)	5.1 µM
CN(C)c1ccc(C=c2c3ccccc3n3c2c2c([n+]3C)CCCC2)cc1	2.64 µM
O=C(Nc1nnc(-c2ccccc2)o1)c1ccc(Cl)cc1	1.84 µM
CCCC(=O)NC(c1ccccc1OC)c1ccc2cccnc2c1O (centres undefined)	1.7 µM
CN(C(=O)COC(=O)c1ccc([N+](=O)[O-])cc1Cl)C1CCCCC1	9.99 µM
O=C(CSc1ccc(-c2ccccn2)nn1)NC1CCCCC1	4.21 µM
CC1CCN(c2ccc3c(c2)S(=O)(=O)c2ccccc2C3=O)CC1	9.89 µM
Oc1ccc(Br)cc1/C=N/Nc1ccccn1	5.39 µM
Nc1cc2c3ccccc3ccc2c2ccccc12	2.13 µM
COc1ccc(C(=O)NC(=S)NNC(=O)CCc2ccccc2)cc1	5.29 µM
CCCn1c2ccccc2c2cc(C(=O)O)ccc21	7.09 µM
CCn1c2ccc(C)cc2c2nc3cc(C(=O)O)ccc3nc21	2.57 µM
O=Cc1cc(N=Nc2ccccc2Cl)ccc1O	0.768 µM
Cc1cccc2sc(NNC(=O)c3ccc(S(=O)(=O)N4CC(C)CC(C)C4)cc3)nc12 (centres undefined)	1.65 µM
O/N=C/c1cc(Br)ccc1OCc1ccccc1F	4.76 µM
Cc1cc(/C=C2\SC(=S)N(C)C2=O)c(C)n1-c1ccc(O)cc1	3.33 µM
CCCCC(=O)NC(c1ccco1)c1cc(Cl)c2cccnc2c1O (centres undefined)	2 µM

SMILES	AC50
COc1ccc(N=N/C(=C\O)C(=O)c2cccs2)cc1	7.25 µM
CCc1ccc(S(=O)(=O)N(C(=O)c2ccncc2)c2ccc(OC(=O)c3ccncc3)cc2)cc1	3.01 µM
Clc1ccccc1CN(Cc1ccco1)Cc1nnnn1C1CCCC1	5.17 µM
O=C(C1CCN(C2CC(=O)N(c3cccc(Cl)c3)C2=O)CC1)N1CCCC1 (centres undefined)	6.02 µM
c1ccc(C(=NNc2nc3ccccc3s2)c2ccccn2)cc1	2.52 µM
FC(F)(F)c1nc(SCc2ccc(Cl)cc2Cl)n[nH]1	6.21 µM
COC(=O)c1cccc2c1-c1ccccc1/C2=N/O	4.95 µM
O=C(NCc1ccncc1)c1ccccc1Nc1ccc(SC(F)F)cc1	5.31 µM
Cn1nnnc1N=N/C(=N/Nc1ccccc1)c1ccccc1	1.85 µM
CC(=O)C1=C(c2ccc(Br)cc2)C(=O)c2ccccc2C1=O	2.62 µM
CCCn1c(=O)c(C(=O)NCc2ccc(OC)c(OC)c2)c(O)c2ccccc21	2.32 µM
O=C1OC(c2ccccc2)=NC12CC2c1ccc(Cl)cc1 (centres undefined)	2.2 µM
O=C(O)c1c(NC(=O)N2CCCC2)sc2c1CCCC2	3.42 µM
Cc1ccc(NC2(c3nnnn3-c3c(C)cccc3C)CCCCC2)cc1	6.94 µM
COC(OC)c1ccc(C#N)c(SCc2ccccc2)n1	7.52 µM
COc1ccc(O)c(C(=O)CC(=O)c2ccc(F)cc2)c1	0.977 µM
O=C1CC(N2CCCCCC2)C(=O)N1c1ccc2c(c1)OCO2 (centres undefined)	4.18 µM
CC[n+]1c(/C=C/C=C/c2ccc(N(C)C)cc2)sc2ccccc21	3.71 µM
COc1cc(/C=C2\SC(=S)N(NS(=O)(=O)c3ccc(C)cc3)C2=O)ccc1O	7.05 µM
CCc1cc(C(=O)Nc2nc(-c3ccccn3)cs2)sc1C	4.3 µM
Cc1ccc(C(C[N+](=O)[O-])c2c(N)n(C)c(=O)n(C)c2=O)cc1 (centres undefined)	6.03 µM
COc1ccc2c(c1)S/C(=C\C(=O)c1ccncc1)N2C	5.21 µM
Cc1ccc2oc(-c3ccccc3)c(C(=O)O)c(=O)c2c1	5.94 µM
